Reference: the supplement of paper PMC11061612

Tests used:
[1] = tested on: COR-L311 (Small Cell Lung Carcinoma); assay: Bliss excess, mean over the matrix (fraction); higher = more synergy
Summary of the method: (§1)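 After 24 hours at 37°C and 5% CO2 in 1536-well plates, cells in DMEM/F12 or RPMI plus 10% FBS received two-drug dose matrices for 72 hours. Viability came from CellTiter-Glo 2.0 luminescence and was scaled as inhibition, anchored at 0 by vehicle wells and at 1 by blank wells. Combination Emax is taken as the second-highest inhibition in the matrix, and Bliss excess as the observed combination effect less EA + EB − EA·EB, with EA and EB the single-agent effects.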

[2] = tested on: NCI-H1666 (Lung Adenocarcinoma); assay: as above
Summary of the method: as §1

[3] = tested on: NCI-H1693 (Lung Adenocarcinoma); assay: as above
Summary of the method: as §1

[4] = tested on: ARH-77 (Non-Cancerous); assay: combination Emax (second highest fraction inhibited in the dose matrix, 72 h); higher = more inhibition; extreme values may be limits of the assay
Summary of the method: as §1

[5] = tested on: CAL-29 (Bladder Carcinoma); assay: as above
Summary of the method: as §1

[6] = tested on: CCK-81 (Colorectal Carcinoma); assay: as above
Summary of the method: as §1

[7] = tested on: A549 (Lung Adenocarcinoma); assay: as above
Summary of the method: as §1

[8] = tested on: A498 (Kidney Carcinoma); assay: as above
Summary of the method: as §1

[9] = tested on: IGR-37 (Melanoma); assay: as above
Summary of the method: as §1

[10] = tested on: HCC1954 (Breast Carcinoma); assay: as above
Summary of the method: as §1

[11] = tested on: COLO-824 (Breast Carcinoma); assay: as above
Summary of the method: as §1

[12] = tested on: NCI-H1581 (Non-Small Cell Lung Carcinoma); assay: as above
Summary of the method: as §1

[13] = tested on: ECC10 (Gastric Carcinoma); assay: as above
Summary of the method: as §1

[14] = tested on: JSC-1 (B-Cell Non-Hodgkin's Lymphoma); assay: as above
Summary of the method: as §1

[15] = tested on: SK-MES-1 (Squamous Cell Lung Carcinoma); assay: as above
Summary of the method: as §1

[16] = tested on: Hs-445 (Non-Cancerous); assay: as above
Summary of the method: as §1

[17] = tested on: NCI-H64 (Small Cell Lung Carcinoma); assay: as above
Summary of the method: as §1

[18] = tested on: 8-MG-BA (Glioblastoma); assay: as above
Summary of the method: as §1

[19] = tested on: COR-L311 (Small Cell Lung Carcinoma); assay: as above
Summary of the method: as §1

[20] = tested on: NY (Osteosarcoma); assay: as above
Summary of the method: as §1
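Wherever Bliss excess, mean over the matrix is given: after 72 h of two-drug dosing.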

| SMILES | Bliss excess [1] | Bliss excess [2] | Bliss excess [3] | combination Emax [4] | combination Emax [5] | combination Emax [6] | combination Emax [7] | combination Emax [8] | combination Emax [9] | combination Emax [10] | combination Emax [11] | combination Emax [12] | combination Emax [13] | combination Emax [14] | combination Emax [15] | combination Emax [16] | combination Emax [17] | combination Emax [18] | combination Emax [19] | combination Emax [20] |
| --- | --- | --- | --- | --- | --- | --- | --- | --- | --- | --- | --- | --- | --- | --- | --- | --- | --- | --- | --- | --- |
| Cc1cc2ncnn2cc1Nc1ncc2c(n1)n(C1CCOCC1)c(=O)n2C [AZD7648] + C=CCn1c(=O)c2cnc(Nc3ccc(N4CCN(C)CC4)cc3)nc2n1-c1cccc(C(C)(C)O)n1 [AZD1775] (first compound max 10 µM, partner max 1 µM) | -0.119 | 0.0305 | 0.0055 | 0.969 | 0.618 | 0.833 | 0.578 | 0.521 | 0.674 | 0.483 | 0.658 | 0.379 | 0.797 | 0.931 | 0.711 | 0.909 | 0.89 | 0.648 | 0.571 | 0.548 |
| Cc1cc2ncnn2cc1Nc1ncc2c(n1)n(C1CCOCC1)c(=O)n2C [AZD7648] + CCN(CCO)CCCOc1ccc2c(Nc3cc(CC(=O)Nc4cccc(F)c4)[nH]n3)ncnc2c1 [AZD2811] (first compound max 10 µM, 7x7, partner max 1 µM) | -0.0806 | -0.0087 | -0.0059 | 0.54 | 0.301 | 0.291 | 0.718 | 0.439 | 0.285 | 0.342 | 0.762 | 0.499 | 0.908 | 0.486 | 0.373 | 0.465 | 0.596 | 0.358 | 0.829 | 0.242 |
| Cc1cc2ncnn2cc1Nc1ncc2c(n1)n(C1CCOCC1)c(=O)n2C [AZD7648] + CN(C)CCCOc1ccc(-c2ccc3ncc4c(c3c2)n(C2CCOCC2)c(=O)n4C)cn1 [AZD0156] (first compound max 10 µM, 7x7, partner max 1 µM) | -0.054 | -0.0072 | 0.0173 | 0.54 | 0.218 | 0.299 | 0.468 | 0.401 | 0.263 | 0.307 | 0.283 | 0.369 | 0.323 | 0.303 | 0.28 | 0.313 | 0.279 | 0.31 | 0.256 | 0.286 |
| Cc1cc2ncnn2cc1Nc1ncc2c(n1)n(C1CCOCC1)c(=O)n2C [AZD7648] + C[C@@H]1COCCN1C2=NC(=NC(=C2)C3(CC3)[S@](=N)(=O)C)C4=C5C=CNC5=NC=C4 [AZD6738] (first compound max 10 µM, 7x7, partner max 10 µM) | -0.016 | 0.0034 | 0.0177 | 0.89 | 0.598 | 0.9 | 0.786 | 0.585 | 0.761 | 0.568 | 0.738 | 0.471 | 0.421 | 0.896 | 0.72 | 0.853 | 0.811 | 0.769 | 0.214 | 0.527 |
| Cc1cc2ncnn2cc1Nc1ncc2c(n1)n(C1CCOCC1)c(=O)n2C [AZD7648] + O=C(c1cc(Cc2n[nH]c(=O)c3ccccc23)ccc1F)N1CCN(C(=O)C2CC2)CC1 [Olaparib] (first compound max 10 µM, 7x7, partner max 10 µM) | -0.126 | -0.0471 | -0.0299 | 0.522 | 0.384 | 0.162 | 0.59 | 0.441 | 0.109 | 0.161 | 0.279 | 0.168 | 0.158 | 0.0503 | 0.177 | 0.373 | 0.134 | 0.329 | 0.456 | 0.14 |
| NC1(C(=O)N[C@@H](CCO)c2ccc(Cl)cc2)CCN(c2ncnc3[nH]ccc23)CC1 [Capivasertib] + CC(=O)c1c(C)c2cnc(Nc3ccc(N4CCNCC4)cn3)nc2n(C2CCCC2)c1=O [Palbociclib] (first compound max 10 µM, 7x7, partner max 10 µM) | -0.0489 | 0.0086 | -0.0631 | 0.705 | 0.479 | 0.337 | 0.764 | 0.629 | 0.396 | 0.74 | 0.612 | 0.373 | 0.506 | 0.669 | 0.5 | 0.613 | 0.332 | 0.597 | 0.68 | 0.161 |
